The record followed here is US4350698A, “Antiallergic imidosulfamides” (SmithKline Corporation, priority 1981, dated 1982).

The assay deals with slow reacting substance of anaphylaxis (SRS-A). Nature of the assay: Inhibition of SRS-A induced contraction of guinea pig ileum. As to conditions: Cavia porcellus, 0.25 h; compound concentration 5×10^-6 M; partially purified SRS-A from guinea pig lung at 40 μg/ml; isolated guinea pig ileum; read-out: percent antagonism of SRS-A induced contraction. The assay is classed as cell-based. As for the experimental part:
The SRS-A antagonist activity of the compounds of this invention is measured by the ability of the active medicament to inhibit SRS-A induced contraction of guinea pig ileum. In this test system, sections of ileum are resected from guinea pigs and placed in 5 ml. tissue baths containing a modified Tyrode's solution. One end of the tissue is fixed to a glass tissue holder, the other is connected to a force-displacement transducer and the tissue is placed under a tension of 500 mg. Isometric tissue contractions are recorded on a six channel polygraph. Baths are constantly aerated with 95% O2 -5% CO2. After a 20 minute stabilization period a concentration of the appropriate agonist which provides a contraction height of 60-80% of the maximum obtainable to that agonist (as determined from full sequential concentration-response curves in separate experiments) is added to the tissue bath and the response recorded. The procedure is repeated until reproducible responses are obtained. […] Percent inhibition produced by the test compound is calculated by subtracting the mean percentage change in control tissue from the mean percentage change in tissues exposed to the test compound. Additional compounds are then evaluated as long as the tissue remains reproducibly responsive to the agonist. […]

Consider `O=C(NS(=O)(=O)N1CCc2ccc(Cl)c(Cl)c2C1)N1CCc2ccc(Cl)c(Cl)c2C1` [Compound 1, N-(7,8-Dichloro-1,2,3,4-tetrahydroisoquinolin-2yl)Carbonyl-7,8-dichloro-1,2,3,4-tetrahydroisoquinoline-2-sulfonamide], for which the inhibition at 5 µM turned out to be 46%.
